Results on 4 molecules are retold here after patent US20240116912A1, “COMPOUNDS AND METHODS FOR MODULATING FXR” (Terns Pharmaceuticals, Inc., priority 2020, published 2024).

In experiment [1] the target is full length human FXR protein (Homo sapiens (Human), UniProt Q96RI1). The experiment can be described thus: FXR cellular assay (FXR-SRCP β-gal enzyme fragment complementation in CHO-K1 cells, chemiluminescence). The class given is cell-based. The following applies: CHO-K1 cells with SRCP-EA and ProLink-labeled FXR, 0-10 micromolar compound, 37° C. for 6h, read-out: EC50 FXR-cell Luminescence/. A digest of the protocol: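 CHO-K1 cells stably expressing ProLink-tagged full-length FXR and SRCP-EA treated with compound (0-10 micromolar, 1% DMSO) for 6 h at 37 °C. Ligand-driven FXR-coactivator binding reconstitutes β-gal; chemiluminescence read after 1 h detection reagent at room temperature.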
Sequence of full length human FXR protein (Q96RI1 whole entry, the tested form may be a part): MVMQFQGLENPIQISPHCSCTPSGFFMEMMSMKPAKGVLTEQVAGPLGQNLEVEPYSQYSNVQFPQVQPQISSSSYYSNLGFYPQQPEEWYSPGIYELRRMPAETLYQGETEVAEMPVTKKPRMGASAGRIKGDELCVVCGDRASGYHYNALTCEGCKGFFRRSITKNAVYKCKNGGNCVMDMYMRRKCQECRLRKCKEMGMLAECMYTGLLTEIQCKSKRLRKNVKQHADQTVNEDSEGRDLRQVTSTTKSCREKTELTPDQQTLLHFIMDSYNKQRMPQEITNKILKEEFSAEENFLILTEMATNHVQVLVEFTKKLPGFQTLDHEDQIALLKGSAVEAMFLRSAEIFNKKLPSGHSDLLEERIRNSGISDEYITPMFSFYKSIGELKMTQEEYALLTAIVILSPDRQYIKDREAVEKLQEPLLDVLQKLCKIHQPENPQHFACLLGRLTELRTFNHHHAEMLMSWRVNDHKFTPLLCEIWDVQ

Experiment [2] addresses ligand binding domain (LBD) of recombinant human FXR (Homo sapiens (Human), UniProt Q96RI1). Kind of experiment: FXR cell free coactivator (SRC-1) recruitment assay, TR-FRET. The following applies: FXR LBD (amino acids 244-476) with labeled SRC-1 domain, 25° C. for 60 minutes, activity relative to CDCA maximum; read-out: EC50 FXR- Biochemical TR-FRET/μM. A digest of the protocol: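 Purified SF9-expressed FXR LBD (aa 244-476) was incubated with compounds (0-10 micromolar) and labeled SRC-1 interaction domain in TR-FRET coregulator buffer G, 60 min at 25° C, 1.2% DMSO. Activity at each concentration was taken as percent of maximal CDCA response to build dose-response curves.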
On the technique in general: TR-FRET usually uses a lanthanide donor and a delayed reading to cut background.

Sequence of ligand binding domain (LBD) of recombinant human FXR (Q96RI1 254-486): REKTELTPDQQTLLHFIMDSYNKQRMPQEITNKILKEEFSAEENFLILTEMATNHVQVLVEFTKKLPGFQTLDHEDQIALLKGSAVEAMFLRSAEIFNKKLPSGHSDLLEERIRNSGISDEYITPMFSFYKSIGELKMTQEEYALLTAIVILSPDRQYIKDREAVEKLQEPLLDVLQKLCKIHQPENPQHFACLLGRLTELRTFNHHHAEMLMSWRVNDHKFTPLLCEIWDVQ
Sequence of ligand binding domain (LBD) of recombinant human FXR (Q15788 whole entry partner, the tested form may be a part): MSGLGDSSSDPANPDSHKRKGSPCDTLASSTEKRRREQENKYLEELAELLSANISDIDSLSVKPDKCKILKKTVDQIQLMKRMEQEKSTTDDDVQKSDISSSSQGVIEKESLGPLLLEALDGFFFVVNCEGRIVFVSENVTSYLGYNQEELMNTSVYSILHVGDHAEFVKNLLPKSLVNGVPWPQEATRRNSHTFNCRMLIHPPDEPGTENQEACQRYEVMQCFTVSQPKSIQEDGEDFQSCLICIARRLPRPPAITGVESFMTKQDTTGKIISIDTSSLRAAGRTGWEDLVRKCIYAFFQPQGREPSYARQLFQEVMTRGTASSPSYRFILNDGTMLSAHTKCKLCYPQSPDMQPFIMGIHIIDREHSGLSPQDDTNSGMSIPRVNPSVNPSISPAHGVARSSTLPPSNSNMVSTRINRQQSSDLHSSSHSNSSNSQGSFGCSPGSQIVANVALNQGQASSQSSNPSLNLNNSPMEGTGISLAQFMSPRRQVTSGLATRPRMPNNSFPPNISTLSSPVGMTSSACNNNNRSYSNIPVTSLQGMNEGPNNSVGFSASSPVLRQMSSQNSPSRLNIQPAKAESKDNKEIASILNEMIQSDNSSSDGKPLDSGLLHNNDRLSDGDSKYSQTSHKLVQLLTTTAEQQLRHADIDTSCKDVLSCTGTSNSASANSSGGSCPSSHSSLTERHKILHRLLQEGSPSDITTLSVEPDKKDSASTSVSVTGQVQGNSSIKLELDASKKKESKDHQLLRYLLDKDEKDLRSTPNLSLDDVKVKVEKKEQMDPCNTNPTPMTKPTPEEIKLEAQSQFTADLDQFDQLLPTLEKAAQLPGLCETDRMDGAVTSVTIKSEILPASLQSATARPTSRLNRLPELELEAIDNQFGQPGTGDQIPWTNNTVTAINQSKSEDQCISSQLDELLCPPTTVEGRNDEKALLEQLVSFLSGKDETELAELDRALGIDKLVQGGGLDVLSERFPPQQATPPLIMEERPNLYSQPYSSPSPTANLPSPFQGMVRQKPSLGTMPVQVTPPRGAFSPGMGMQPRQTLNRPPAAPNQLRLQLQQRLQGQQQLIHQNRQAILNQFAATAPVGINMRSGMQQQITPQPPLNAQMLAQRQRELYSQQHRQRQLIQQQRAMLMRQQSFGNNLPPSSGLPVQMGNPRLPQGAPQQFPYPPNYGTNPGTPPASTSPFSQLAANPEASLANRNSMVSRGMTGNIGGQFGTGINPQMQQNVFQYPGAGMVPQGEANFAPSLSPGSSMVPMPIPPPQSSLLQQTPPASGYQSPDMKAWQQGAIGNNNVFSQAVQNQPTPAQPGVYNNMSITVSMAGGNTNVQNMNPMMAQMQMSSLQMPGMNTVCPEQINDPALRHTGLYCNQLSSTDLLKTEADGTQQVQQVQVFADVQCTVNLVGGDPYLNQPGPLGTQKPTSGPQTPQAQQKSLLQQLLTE

For the molecule `O=c1[nH]c(-c2n[nH]c(N3CCC(OCc4c(-c5c(Cl)cccc5Cl)noc4C4CC4)CC3)n2)no1` [Example 45, 3-(5-(4-((5-cyclopropyl-3-(2,6-dichlorophenyl)isoxazol-4-yl)methoxy)piperidin-1-yl)-1H-1,2,4-triazol-3-yl)-1,2,4-oxadiazol-5(4H)-one], the EC50 in experiment [1] is 10000 nM; in experiment [2] it was 0.61 µM.
As to `O=c1[nH]c(-c2ccc(N3CCC(OCc4c(-c5c(Cl)cccc5Cl)noc4C4CC4)CC3)s2)no1` [Example 35, 3-(5-(4-((5-cyclopropyl-3-(2,6-dichlorophenyl)isoxazol-4-yl)methoxy)piperidin-1-yl)thiophen-2-yl)-1,2,4-oxadiazol-5(4H)-one], the EC50 turned out to be 324 nM in experiment [1] and 0.0435 µM in experiment [2].
For `CCOc1cccc(F)c1-c1noc(C2CC2)c1COC1CCN(c2ccc(-c3noc(=O)[nH]3)cc2)CC1` [Example 27, 3-(4-(4-((5-cyclopropyl-3-(2-ethoxy-6-fluorophenyl)isoxazol-4-yl)methoxy)piperidin-1-yl)phenyl)-1,2,4-oxadiazol-5(4H)-one], in that order: 960 nM and 0.227 µM.
For `O=c1[nH]c(-c2coc(N3CCC(OCc4c(-c5c(Cl)cccc5Cl)noc4C4CC4)CC3)n2)no1` [Example 29, 3-(2-(4-((5-cyclopropyl-3-(2,6-dichlorophenyl)isoxazol-4-yl)methoxy)piperidin-1-yl)oxazol-4-yl)-1,2,4-oxadiazol-5(4H)-one], in that order: 3190 nM and 0.231 µM.
